Reference: article PMC3222680 (PLoS ONE, 2011)

How the values were obtained:
Type in all cases: cell-based
αV25′A αT-βWT GlyR = target: T1, αV25′A αT-βWT GlyR (Homo sapiens, UniProt P23415+P48167, Q95A/V305A)
T1 construct: expressed in transfected cells; host or cells: HEK293 (ATCC)
Method: (§1) The human GlyR α1 and β subunit cDNAs were subcloned into the pcDNA3.1zeo+ (Invitrogen) or pGEMHE [44] plasmid vectors for expression in HEK293 cells or Xenopus oocytes, respectively. Site-directed mutagenesis and chimera construction were performed using the QuickChange (Stratagene, La Jolla, CA, USA) mutagenesis and multiple-template-based sequential PCR protocols, respectively.
(§2) The effects of the hyperekplexia-mimicking mutations, K24′A, V25′A and Y27′A, were examined on GlyRs expressed in HEK293 cells (ATCC). Details of the HEK293 cell culture, GlyR expression and electrophysiological recording of the HEK293 cells are described elsewhere. Briefly, HEK293 cells were maintained in DMEM supplemented with 10% fetal bovine serum. Cells were transfected using a calcium phosphate precipitation protocol. When co-transfecting the α1 together with the β or any other chimera subunits, their respective cDNAs were combined in a ratio of 1∶10. In addition, the pEGFP-N1 (Clontech) was co-transfected to facilitate identifying the transfected cells. […] Cells were treated with external Ringer's solution and internal CsCl solution [30]. Cells were voltage-clamped at −40 mV. When the heteromeric GlyRs were expressed, the picrotoxin sensitivity was tested to confirm that the majority of receptors are heteromers, [30].
(§3) Results are expressed as mean±standard error of the mean of three or more independent experiments. […] Statistical significance was determined using the Student's t-test.

αR19′A βA19′R GlyR = target: T2, αR19′A βA19′R GlyR (Homo sapiens, UniProt P23415+P48167, A317R/R299A)
T2 construct: expressed in transfected cells; host or cells: HEK293 (ATCC)
Method: as §1, §2, §3

αWT βV25′A GlyR = target: T3, αWT βV25′A GlyR (Homo sapiens, UniProt P23415+P48167, V323A)
T3 construct: expressed in transfected cells; host or cells: HEK293 (ATCC)
Method: as §1, §2, §3

αWT αT-βWT GlyR = target: T4, αWT αT-βWT GlyR (Homo sapiens, UniProt P23415+P48167, I259R/K198I/L185M/L189N/Q95A/R196T/R263E/S182A/T188K/T194V/T261H/V256I/V258A)
T4 construct: expressed in transfected cells; host or cells: HEK293 (ATCC)
Method: as §1, §2, §3

αWT α-βWT GlyR = target: T5, αWT α-βWT GlyR (Homo sapiens, UniProt P23415+P48167, A277S/A316I/A325S/DEL290-297/G282P/I253M/I257A/I264V/I268L/I311L/I313V/INS301ECTTLAAE/L252M/L327V/M248V/M255V/M274P/M315L/P278A/Q254G/R299L/S259T/S324A/T286F/T287S/V317A/V322G/Y250F)
T5 construct: The α R218-Q219 and β R242-Q243 are also the joining sites for chimeras constructed between the ECD and TMD; expressed in transfected cells; host or cells: HEK293 (ATCC)
Method: as §1, §2, §3

αWT α-βV25′A GlyR = target: T6, αWT α-βV25′A GlyR (Homo sapiens, UniProt P23415+P48167, A277S/G282P/I253M/I257A/I264V/I268L/L252M/M248V/M255V/M274P/P278A/Q254G/S259T/V323A/Y250F)
T6 construct: The α R218-Q219 and β R242-Q243 are also the joining sites for chimeras constructed between the ECD and TMD; expressed in transfected cells; host or cells: HEK293 (ATCC)
Method: as §1, §2, §3

αWT αB-βWT GlyR = target: T7, αWT αB-βWT GlyR (Homo sapiens, UniProt P23415+P48167, A165S/A240V/A277S/A316I/A325S/A80Q/DEL290-297/E245R/G282P/H243T/I181K/I238V/I253M/I257A/I264V/I268L/I311L/I313V/INS301ECTTLAAE/K171T/L252M/L327V/M168L/M248V/M255V/M274P/M315L/N172L/P278A/Q254G/R241I/R299L/S259T/S324A/T179R/T286F/T287S/V177T/V317A/V322G/Y250F)
T7 construct: expressed in transfected cells; host or cells: HEK293 (ATCC)
Method: as §1, §2, §3

αR19′A βWT GlyR = target: T8, αR19′A βWT GlyR (Homo sapiens, UniProt P23415+P48167, R299A)
T8 construct: expressed in transfected cells; host or cells: HEK293 (ATCC)
Method: as §1, §2, §3

αV25′A α-βWT GlyR = target: T9, αV25′A α-βWT GlyR (Homo sapiens, UniProt P23415+P48167, V305A)
T9 construct: The α R218-Q219 and β R242-Q243 are also the joining sites for chimeras constructed between the ECD and TMD; expressed in transfected cells; host or cells: HEK293 (ATCC)
Method: as §1, §2, §3

αWT βWT GlyR = target: T10, αWT βWT GlyR (Homo sapiens, UniProt P23415+P48167)
T10 construct: expressed in transfected cells; host or cells: HEK293 (ATCC)
Method: as §1, §2, §3

αWT α-βY27′A GlyR = target: T11, αWT α-βY27′A GlyR (Homo sapiens, UniProt P23415+P48167, A277S/G282P/I253M/I257A/I264V/I268L/L252M/M248V/M255V/M274P/P278A/Q254G/S259T/Y250F/Y325A)
T11 construct: The α R218-Q219 and β R242-Q243 are also the joining sites for chimeras constructed between the ECD and TMD; expressed in transfected cells; host or cells: HEK293 cells (ATCC), pcDNA3.1zeo+
Method: as §1, §2, §3

αWT βY27′A GlyR = target: T12, αWT βY27′A GlyR (Homo sapiens, UniProt P23415+P48167, Y325A)
T12 construct: expressed in transfected cells; host or cells: HEK293 (ATCC)
Method: as §1, §2, §3

αK24′A βWT GlyR = target: T13, αK24′A βWT GlyR (Homo sapiens, UniProt P23415+P48167, K304A)
T13 construct: expressed in transfected cells; host or cells: HEK293 (ATCC)
Method: as §1, §2, §3

αK24′A α-βWT GlyR = target: T14, αK24′A α-βWT GlyR (Homo sapiens, UniProt P23415+P48167, K304A)
T14 construct: The α R218-Q219 and β R242-Q243 are also the joining sites for chimeras constructed between the ECD and TMD; expressed in transfected cells; host or cells: HEK293 (ATCC)
Method: as §1, §2, §3

αWT αT-βV25′A GlyR = target: T15, αWT αT-βV25′A GlyR (Homo sapiens, UniProt P23415+P48167, I259R/K198I/L185M/L189N/Q95A/R196T/R263E/S182A/T188K/T194V/T261H/V256I/V258A/V323A)
T15 construct: expressed in transfected cells; host or cells: HEK293 (ATCC)
Method: as §1, §2, §3

[1] = αV25′A αT-βWT, HEK293, with glycine at EC50 of α1 homomer
[2] = αR19′A βA19′R, HEK293, with glycine at EC50 of α1 homomer
[3] = αWT βV25′A, HEK293, with glycine at EC50 of α1 homomer
[4] = αWT αT-βWT, HEK293, with glycine at EC50 of α1 homomer
[5] = αWT α-βWT, HEK293, with glycine at EC50 of α1 homomer
[6] = αWT α-βV25′A, HEK293, with glycine at EC50 of α1 homomer
[7] = αWT αB-βWT, HEK293, with glycine at EC50 of α1 homomer
[8] = αR19′A βWT, HEK293, with glycine at EC50 of α1 homomer
[9] = αV25′A α-βWT, HEK293, with glycine at EC50 of α1 homomer
[10] = αWT βWT, HEK293, with glycine at EC50 of α1 homomer
[11] = αWT α-βY27′A, HEK293, with glycine at EC50 of α1 homomer
[12] = αWT βY27′A, HEK293, with glycine at EC50 of α1 homomer
[13] = αK24′A βWT, HEK293, with glycine at EC50 of α1 homomer
[14] = αK24′A α-βWT, HEK293, with glycine at EC50 of α1 homomer
[15] = αWT αT-βV25′A, HEK293, with glycine at EC50 of α1 homomer

T4 sequence (P23415 29-449 isoform P23415-2, stated change not applied): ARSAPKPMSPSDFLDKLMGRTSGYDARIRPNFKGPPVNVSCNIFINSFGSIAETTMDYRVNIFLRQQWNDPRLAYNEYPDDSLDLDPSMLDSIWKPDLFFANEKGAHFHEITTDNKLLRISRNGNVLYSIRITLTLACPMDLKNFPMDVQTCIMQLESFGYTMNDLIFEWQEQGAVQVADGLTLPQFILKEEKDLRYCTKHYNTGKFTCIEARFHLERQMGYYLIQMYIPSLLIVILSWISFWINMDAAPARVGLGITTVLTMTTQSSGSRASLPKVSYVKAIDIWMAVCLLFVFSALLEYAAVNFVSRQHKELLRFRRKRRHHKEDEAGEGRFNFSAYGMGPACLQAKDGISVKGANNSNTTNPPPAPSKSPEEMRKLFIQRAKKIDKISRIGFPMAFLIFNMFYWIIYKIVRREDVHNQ
T4 sequence (P48167 23-497 Q95A/S182A/L185M/T188K/L189N/T194V/R196T/K198I/V256I/V258A/I259R/T261H/R263E): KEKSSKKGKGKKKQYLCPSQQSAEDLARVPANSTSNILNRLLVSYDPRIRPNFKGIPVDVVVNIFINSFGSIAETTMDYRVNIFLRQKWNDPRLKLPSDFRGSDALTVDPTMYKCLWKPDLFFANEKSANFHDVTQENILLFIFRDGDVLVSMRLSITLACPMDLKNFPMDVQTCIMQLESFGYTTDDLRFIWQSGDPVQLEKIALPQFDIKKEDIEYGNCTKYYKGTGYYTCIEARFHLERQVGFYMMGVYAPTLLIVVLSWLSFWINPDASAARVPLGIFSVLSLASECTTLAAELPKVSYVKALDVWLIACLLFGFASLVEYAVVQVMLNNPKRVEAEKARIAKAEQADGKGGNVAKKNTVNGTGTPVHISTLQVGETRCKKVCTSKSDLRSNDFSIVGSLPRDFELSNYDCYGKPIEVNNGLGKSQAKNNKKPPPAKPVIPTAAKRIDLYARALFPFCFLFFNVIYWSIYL
T10 sequence (P23415 29-449 isoform P23415-2 limits assumed): as the sequence (P23415 29-449 isoform P23415-2, stated change not applied) above
T10 sequence (P48167 23-497): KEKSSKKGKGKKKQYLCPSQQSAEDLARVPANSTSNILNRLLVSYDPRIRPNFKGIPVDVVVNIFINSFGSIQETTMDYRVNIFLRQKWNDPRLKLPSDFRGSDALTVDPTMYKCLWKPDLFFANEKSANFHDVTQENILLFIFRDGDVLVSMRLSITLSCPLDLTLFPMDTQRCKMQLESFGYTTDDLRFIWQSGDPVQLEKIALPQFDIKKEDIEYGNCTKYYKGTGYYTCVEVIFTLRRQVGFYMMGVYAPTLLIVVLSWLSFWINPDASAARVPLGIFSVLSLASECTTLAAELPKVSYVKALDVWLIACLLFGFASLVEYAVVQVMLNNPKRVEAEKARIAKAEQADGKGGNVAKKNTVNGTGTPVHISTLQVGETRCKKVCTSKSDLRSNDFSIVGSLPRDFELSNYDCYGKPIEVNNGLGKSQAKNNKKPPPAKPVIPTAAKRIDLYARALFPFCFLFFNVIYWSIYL
T6 sequence (P23415 29-449 isoform P23415-2, stated change not applied): as the sequence (P23415 29-449 isoform P23415-2, stated change not applied) above
T6 sequence (P23415+P48167 fused with the stated changes): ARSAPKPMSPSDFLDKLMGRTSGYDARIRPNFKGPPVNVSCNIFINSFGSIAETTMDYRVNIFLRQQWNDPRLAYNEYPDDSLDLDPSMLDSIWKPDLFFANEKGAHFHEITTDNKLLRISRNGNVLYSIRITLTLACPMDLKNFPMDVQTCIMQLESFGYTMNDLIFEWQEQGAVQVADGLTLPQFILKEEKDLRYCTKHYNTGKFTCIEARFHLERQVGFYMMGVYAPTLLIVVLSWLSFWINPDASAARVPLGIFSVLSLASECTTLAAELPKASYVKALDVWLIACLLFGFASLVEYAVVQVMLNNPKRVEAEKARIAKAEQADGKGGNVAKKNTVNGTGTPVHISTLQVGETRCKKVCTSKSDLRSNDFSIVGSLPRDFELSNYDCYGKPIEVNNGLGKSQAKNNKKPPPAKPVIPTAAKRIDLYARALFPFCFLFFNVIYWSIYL
T7 sequence (P23415 29-449 isoform P23415-2, stated change not applied): as the sequence (P23415 29-449 isoform P23415-2, stated change not applied) above
T7 sequence (P23415+P48167 fused with the stated changes): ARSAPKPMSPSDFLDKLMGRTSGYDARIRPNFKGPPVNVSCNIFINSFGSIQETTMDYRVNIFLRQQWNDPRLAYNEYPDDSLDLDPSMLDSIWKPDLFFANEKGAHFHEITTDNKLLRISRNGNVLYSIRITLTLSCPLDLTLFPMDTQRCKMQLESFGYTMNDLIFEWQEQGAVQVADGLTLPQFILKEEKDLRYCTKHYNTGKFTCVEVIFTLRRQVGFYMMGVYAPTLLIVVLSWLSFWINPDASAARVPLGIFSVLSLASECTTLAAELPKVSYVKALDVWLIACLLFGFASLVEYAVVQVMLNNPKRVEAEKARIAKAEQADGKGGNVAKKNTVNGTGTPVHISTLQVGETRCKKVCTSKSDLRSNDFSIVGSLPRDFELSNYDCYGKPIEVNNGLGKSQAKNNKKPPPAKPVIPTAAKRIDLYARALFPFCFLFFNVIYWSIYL
T15 sequence (P23415 29-449 isoform P23415-2, stated change not applied): as the sequence (P23415 29-449 isoform P23415-2, stated change not applied) above
T15 sequence (P48167 23-497 Q95A/S182A/L185M/T188K/L189N/T194V/R196T/K198I/V256I/V258A/I259R/T261H/R263E/V323A): as the sequence (P48167 23-497 Q95A/S182A/L185M/T188K/L189N/T194V/R196T/K198I/V256I/V258A/I259R/T261H/R263E) above, with V301A counted along it

## NCC(=O)O [glycine]
αV25′A αT-βWT GlyR
  Imax: 6.0±1.7 nA
  nH: 1.4±0.2
αR19′A βA19′R GlyR
  Imax: 5.5±0.9 nA
  nH: 2.1±0.2
αWT βV25′A GlyR
  Imax: 7.7±0.8 nA
  nH: 2.0±0.6
αWT αT-βWT GlyR
  Imax: 12.0±1.6 nA
  nH: 2.0±0.1
αWT α-βWT GlyR
  Imax: 4.3±0.7 nA
  nH: 1.3±0.3
αWT α-βV25′A GlyR
  Imax: 7.6±1.7 nA
  nH: 1.3±0.1
αWT αB-βWT GlyR
  Imax: 8.6±1.6 nA
  nH: 1.8±0.4
αR19′A βWT GlyR
  Imax: 3.9±1.3 nA
  nH: 2.5±0.3
αV25′A α-βWT GlyR
  Imax: 8.2±1.4 nA
  nH: 0.92±0.04
αWT βWT GlyR
  Imax: 4.3±1.2 nA
  nH: 2.0±0.4
αWT α-βY27′A GlyR
  Imax: 6.9±3.1 nA
  nH: 1.3±0.3
αWT βY27′A GlyR
  Imax: 8.0±1.3 nA
  nH: 2.4±0.1
αK24′A βWT GlyR
  Imax: 6.3±1.1 nA
  nH: 1.8±0.2
αK24′A α-βWT GlyR
  Imax: 7.2±0.9 nA
  nH: 1.0±0.1
αWT αT-βV25′A GlyR
  Imax: 14±3.0 nA
  nH: 2.3±0.1

## picrotoxin [PTX]
αV25′A αT-βWT GlyR; [1]
  10uM PTX inhibition (%): 3.7±1.6%
  100uM PTX inhibition (%): 25±4%
αR19′A βA19′R GlyR; [2]
  10uM PTX inhibition (%): 4.2±1.7%
  100uM PTX inhibition (%): 22±8%
αWT βV25′A GlyR; [3]
  10uM PTX inhibition (%): 5.7±2.2%
  100uM PTX inhibition (%): 36±7%
αWT αT-βWT GlyR; [4]
  10uM PTX inhibition (%): 3.2±0.6%
  100uM PTX inhibition (%): 25±6%
αWT α-βWT GlyR; [5]
  10uM PTX inhibition (%): 3.8±2.2%
  100uM PTX inhibition (%): 25±2%
αWT α-βV25′A GlyR; [6]
  10uM PTX inhibition (%): 3.0±1.3%
  100uM PTX inhibition (%): 34±4%
αWT αB-βWT GlyR; [7]
  10uM PTX inhibition (%): 4.8±0.9%
  100uM PTX inhibition (%): 33±4%
αR19′A βWT GlyR; [8]
  10uM PTX inhibition (%): 2.8±2.1%
  100uM PTX inhibition (%): 20±9%
αV25′A α-βWT GlyR; [9]
  10uM PTX inhibition (%): 2.9±0.8%
  100uM PTX inhibition (%): 21±5%
αWT βWT GlyR; [10]
  10uM PTX inhibition (%): 8.5±1.8%
  100uM PTX inhibition (%): 33±9%
αWT α-βY27′A GlyR; [11]
  10uM PTX inhibition (%): 4.9±0.3%
  100uM PTX inhibition (%): 39±5%
αWT βY27′A GlyR; [12]
  10uM PTX inhibition (%): 6.3±0.3%
  100uM PTX inhibition (%): 42±2%
αK24′A βWT GlyR; [13]
  10uM PTX inhibition (%): 2.2±1.1%
  100uM PTX inhibition (%): 20±5%
αK24′A α-βWT GlyR; [14]
  10uM PTX inhibition (%): 4.8±0.7%
  100uM PTX inhibition (%): 26±5%
αWT αT-βV25′A GlyR; [15]
  10uM PTX inhibition (%): 8.5±1.8%
  100uM PTX inhibition (%): 36±3%
